The text below walks through data of US20060063803A1, “4-Amino substituted-2-substituted-1,2,3,4-tetrahydroquinoline compounds” (Pfizer Inc, priority 2004, published 2006).

Series [1] in a line: In vitro microcentrifuge dissolution test. Type of series: physicochemical. Conditions: PBS pH 6.5, 290 mOsm/kg, 7.3 mM sodium taurocholic acid, 1.4 mM 1-palmitoyl-2-oleyl-sn-glycero-3-phosphocholine, 37° C.; 200 μgA/mL if all dissolved. As to the method: An in vitro dissolution test was used to determine the dissolution performance of the solid amorphous dispersion of Example 89. For this test, a sufficient amount of material was added to a microcentrifuge test tube so that the concentration of Compound A would have been 200 μgA/mL, if all of the compound had dissolved. The test was run in duplicate. The tubes were placed in a 37° C. temperature-controlled chamber, and 1.8 mL PBS at pH 6.5 and 290 mOsm/kg, containing 7.3 mM sodium taurocholic acid and 1.4 mM of 1-palmitoyl-2-oleyl-sn-glycero-3-phosphocholine, was added to each respective tube. The samples were quickly mixed using a vortex mixer for about 60 seconds. The samples were centrifuged at 13,000 G at 37° C. for 1 minute. The resulting supernatant solution was then sampled and diluted 1:5 (by volume) with methanol and analyzed by high-performance liquid chromatography (HPLC). HPLC analysis was performed using a Zorbax RX-C18 column. The mobile phase consisted of 30/70 0.15% trifluoroacetic acid/acetonitrile, with a flow rate of 1.0 mL/min. UV absorbance was measured at 254 nm. The contents of each tube were mixed on the vortex mixer and allowed to stand undisturbed at 37° C. until the next sample was taken. Samples were collected at 4, 10, 20, 40, 90, and 1200 minutes. […]

A short description of series [2]: In vivo tests - dogs, oral suspension, serum levels by LC/MS/MS. Conditions: dog, 3 male beagle dogs, fasted, oral gavage of OPC suspension, 3 mgA/kg. As to the method: Samples were dosed orally as suspensions to 3 male beagle dogs in the fasted state. Oral powders for constitution (OPC) were prepared by adding 150 mg of crystalline Compound A to 50 mL water containing 0.5 wt % Methylcellulose A, or 600 mg of the dispersion of Example 1 to 50 mL water containing 0.5 wt % Methylcellulose A and 0.1 wt % Tween 80. Dogs were fasted overnight, and allowed ad libidum access to water. On the morning of the study, approximately 10 mL of OPC solution (3 mgA/kg) was administered via oral gavage with 10 mL normal saline flush.
Whole-blood samples (3-mL red-top Vacutainer tubes without serum separators) were taken from the jugular vein before dosing and at 0.25, 0.5, 1, 2, 4, 6, 8, and 24 hours after dosing. Serum was harvested into cryovials after centrifugation at 3000 rpm for 10 minutes. The samples were frozen and then kept at −20° C. until they were analyzed by liquid chromatography with tandem mass spectrometry (LC/MS/MS).

As usually defined, the AUC(0-inf) is total exposure, with the tail of the curve extrapolated. A higher AUC(0-inf) goes with more exposure. By Cmax is commonly meant the highest concentration seen after dosing. For `CC[C@@H]1C[C@H](N(Cc2cc(C(F)(F)F)cc(C(F)(F)F)c2)c2nnn(C)n2)c2cc(C(F)(F)F)ccc2N1C(=O)[C@H]1CC[C@H](CC(N)=O)CC1` [Crystalline Compound A, Trans-(2R,4S)-2-(4-{4-[(3,5-Bis-trifluoromethyl-benzyl)-(2-methyl-2H-tetrazol-5-yl)-amino]-2-ethyl-6-trifluoromethyl-3,4-dihydro-2H-quinoline-1-carbonyl}-cyclohexyl)-acetamide], in series [1], the “AUC90 (area under the concentration-versus-time curve during the initial ninety minutes)” value is on record as 800 min * μgA/mL and the “MDC90 (maximum dissolved concentration of Compound A during the initial ninety minutes)” value turned out to be 13 μgA/mL. Also, in series [2], the area under the curve AUC(0-inf) came to 2690 ng·h/mL and the Cmax was determined as 186 ng/mL.
